Tests used:
[1] = biological target: Dihydroorotate dehydrogenase (quinone), mitochondrial (Homo sapiens, UniProt Q02127); assay type: ADME
Plasmodium falciparum [2] = experiment: microbe, parasite or virus in culture; details: 3D7, 72 h
[3] = Inhibition of Plasmodium vivax DHODH expressed in Escherichia coli BL21-DE3 using L-dihydroorotate as substrate by steady-state DCIP method
[4] = Inhibition of Plasmodium falciparum DHODH expressed in Escherichia coli BL21-DE3 using L-dihydroorotate as substrate by steady-state DCIP method
Plasmodium falciparum [5] = system: Plasmodium falciparum

Chain of Dihydroorotate dehydrogenase (quinone), mitochondrial (Q02127 whole entry): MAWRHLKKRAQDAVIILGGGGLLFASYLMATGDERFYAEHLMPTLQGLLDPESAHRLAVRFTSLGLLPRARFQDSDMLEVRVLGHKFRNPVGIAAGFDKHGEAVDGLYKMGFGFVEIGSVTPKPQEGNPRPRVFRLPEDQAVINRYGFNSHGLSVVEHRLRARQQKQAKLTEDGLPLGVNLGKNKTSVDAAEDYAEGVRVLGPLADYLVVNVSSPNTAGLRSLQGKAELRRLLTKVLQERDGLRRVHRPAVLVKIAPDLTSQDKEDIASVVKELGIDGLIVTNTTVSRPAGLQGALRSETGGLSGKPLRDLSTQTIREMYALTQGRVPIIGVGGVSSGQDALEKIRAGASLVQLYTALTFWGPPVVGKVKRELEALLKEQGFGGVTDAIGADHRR

Structure (SMILES)	IC50 [1] [µM]	EC50 (Plasmodium falciparum [2]) [µM]	IC50 [3] [µM]	IC50 [4] [µM]	EC50 (Plasmodium falciparum [5]) [µM]
Cc1cc(C(C)NC(=O)c2[nH]cc(Cc3cccc4ccncc34)c2C)no1 (racemic)	> 100	0.0037	0.021	0.03	–
Cc1c(C(=O)NC(C)c2nc[nH]n2)[nH]c(Cl)c1Cc1ccc(C(F)(F)F)nc1 (stereo in doubt; form 2)	–	–	0.063	0.2	0.04
Cc1cc(C(C)NC(=O)c2[nH]cc(Cc3ccc(F)c4ccncc34)c2C)no1 (racemic)	> 100	0.0022	0.048	0.036	–
Cc1c(Cc2ccc(C(F)(F)F)nc2)c[nH]c1C(=O)NC(C)c1cc(C#N)[nH]n1 (stereo in doubt; form 1)	–	–	0.083	0.12	0.017
Cc1c(Cc2ccc(C(F)(F)F)nc2)c[nH]c1C(=O)NC(C)c1cnn(C)c1 (racemic)	–	–	0.062	–	0.0055
Cc1nc(C(C)NC(=O)c2[nH]cc(Cc3ccc(C(F)(F)F)nc3)c2C)c[nH]1 (racemic)	> 100	0.38	0.5	13	–
Cc1c(Cc2ccc(C(F)(F)F)cc2F)c[nH]c1C(=O)NC1CC1	> 100	–	–	0.044	–
[2H]C([2H])(c1ccc(C(F)(F)F)nc1)c1c[nH]c(C(=O)NC(C)c2cc(C)on2)c1C (stereo in doubt; form 1)	–	0.0047	0.0091	–	–
Cc1c(C2(c3ccc(C(F)(F)F)nc3)CC2)c[nH]c1C(=O)NC(C)c1cc(C(N)=O)[nH]n1 (racemic)	–	–	0.18	0.26	3
Cc1c(Cc2ccc(C(F)(F)F)nc2F)c[nH]c1C(=O)N1CC(F)(F)C1	> 100	0.0026	0.012	0.016	–
Cc1cc(C(C)NC(=O)c2[nH]cc(Cc3ccc(C(F)(F)F)nc3)c2C)no1 (racemic)	–	–	0.03	–	0.009
Cc1c(Cc2ccc(C(F)(F)F)nc2)c[nH]c1C(=O)NC(C)c1nc[nH]n1 (racemic)	–	–	0.12	0.26	0.16
Cc1[nH]c(C(=O)NC(C)c2cnn(C)c2)c(C)c1Cc1ccc(C(F)(F)F)nc1 (stereo in doubt; form 2)	–	–	0.076	0.088	0.017
Cc1c(C2(c3cccc(C(F)(F)F)c3)CC2)c[nH]c1C(=O)NC(C)c1nc[nH]n1 (stereo in doubt; form 1)	–	–	0.04	0.11	0.048
Cc1nc(C(C)NC(=O)c2[nH]cc(Cc3ccc(C(F)(F)F)nc3)c2C)n[nH]1 (racemic)	> 100	0.38	0.32	0.68	–
Cc1nc(C(C)NC(=O)c2[nH]cc(Cc3ccc(C(F)(F)F)nc3)c2C)no1 (racemic)	> 100	0.19	0.1	0.37	–
Cc1cc(C(C)NC(=O)c2[nH]cc(C(O)c3ccc(C(F)(F)F)nc3)c2C)no1 (racemic)	> 100	0.022	0.13	0.18	–
Cc1c(Cc2ccc(C(F)(F)F)nc2)c[nH]c1C(=O)NC(C)c1cc(C(N)=O)[nH]n1 (stereo in doubt; form 1)	–	–	0.23	35	0.024
Cc1[nH]c(C(=O)N[C@H](C)c2cn[nH]c2)c(C#N)c1Cc1ccc(C(F)(F)F)nc1 (stereo in doubt; form 2)	–	–	0.44	0.66	0.17
COC(c1ccc(C(F)(F)F)nc1)c1c[nH]c(C(=O)NC(C)c2cc(C)on2)c1C (racemic)	> 100	0.04	0.1	0.15	–

Structure (SMILES)	IC50 [1] [µM]	EC50 (Plasmodium falciparum [2]) [µM]	IC50 [3] [µM]	IC50 [4] [µM]	EC50 (Plasmodium falciparum [5]) [µM]
Cc1cc(C(C)NC(=O)c2[nH]cc(-c3c[nH]c4cc(C(F)(F)F)ccc34)c2C)no1 (stereo in doubt; form 2)	> 100	–	0.058	0.66	0.085
Cc1cc(C(C)NC(=O)c2[nH]c(C)c(Cc3ccc(C(F)(F)F)nc3)c2C)no1 (stereo in doubt; form 1)	–	–	0.03	0.065	0.012
Cc1c(Cc2ccc(F)c3ccncc23)c[nH]c1C(=O)NC(C)c1nc[nH]n1 (stereo in doubt; form 1)	–	–	0.029	0.044	0.0095
Cc1c(Cc2ccc(C(F)(F)F)nc2F)c[nH]c1C(=O)NC1CC1	> 100	0.0031	0.0054	0.011	–
Cc1c(C2(c3ccc(C(F)(F)F)c(F)c3)CC2)c[nH]c1C(=O)NC(C)c1nc[nH]n1 (stereo in doubt; form 1)	–	–	0.061	0.11	0.029
Cc1c(Cc2ccc(C(F)(F)F)nc2)c[nH]c1C(=O)NC(C)c1cc(C(N)=O)[nH]n1 (racemic)	–	–	0.43	0.65	0.051
Cc1c(Cc2ccc(C(F)(F)F)cc2F)c[nH]c1C(=O)NC(C)c1nc[nH]n1 (stereo in doubt; form 1)	–	–	0.073	35	0.15
Cc1c(C(=O)NC(C)c2nc[nH]n2)[nH]c(Cl)c1Cc1ccc(C(F)(F)F)nc1 (stereo in doubt; form 4)	–	–	0.1	0.29	0.13
CCOC(=O)c1[nH]cc(Cc2nc3ccccc3o2)c1C	> 100	1.6	–	0.9	–
Cc1cc(C(C)NC(=O)c2[nH]cc(C3(c4ccc(C(F)(F)F)nc4)CC3)c2C)no1 (stereo in doubt; form 1)	–	–	0.03	0.016	0.011
Cc1cc(C(C)NC(=O)c2[nH]cc(Cc3ccc(C(F)(F)F)nc3)c2C)n[nH]1 (stereo in doubt; form 1)	–	–	0.069	0.1	0.02
Cc1c(Cc2ccc(C(F)(F)F)nc2)c[nH]c1C(=O)NC(C)c1cn[nH]c1 (racemic)	–	–	0.048	0.061	0.009
Cc1c(Cc2ccc(C(F)(F)F)nc2)c[nH]c1C(=O)NC(C)c1nc[nH]n1 (stereo in doubt; form 1)	–	–	0.11	0.25	0.066
Cc1[nH]c(C(=O)NC(C)c2cn[nH]c2)c(C)c1Cc1ccc(C(F)(F)F)nc1 (stereo in doubt; form 1)	–	–	0.088	0.087	0.006
Cc1[nH]c(C(=O)NC(C)c2nc[nH]n2)c(C)c1Cc1ccc(C(F)(F)F)nc1 (stereo in doubt; form 1)	–	–	0.14	0.29	0.14
Cc1cc(C(C)NC(=O)c2[nH]cc(-c3n[nH]c4cc(C(F)(F)F)ccc34)c2C)no1 (stereo in doubt; form 2)	–	–	0.069	0.56	0.062
Cc1c(Cc2nc3ccccc3o2)c[nH]c1C(=O)NC1CC1	> 100	0.6	–	0.67	–
Cc1cc(C(C)NC(=O)c2[nH]c(C)c(Cc3ccc(C(F)(F)F)nc3)c2C#N)no1 (stereo in doubt; form 2)	–	–	0.099	0.095	0.064
Cc1c(Cc2ccc(C(F)(F)F)nc2)c[nH]c1C(=O)NC(C)c1cc[nH]n1 (racemic)	–	0.043	–	0.27	–
Cc1cc(C(C)NC(=O)c2[nH]cc(Cc3ccc(C(F)(F)F)cc3)c2C)no1 (stereo in doubt; form 1)	–	–	0.013	0.046	0.17

— ChEMBL document CHEMBL4811258, “Potent Antimalarials with Development Potential Identified by Structure-Guided Computational Optimization of a Pyrrole-Based Dihydroorotate Dehydrogenase Inhibitor Series” (J Med Chem, 2021)
